Compound: CC1(C)CNc2cc(NC(=O)c3cccnc3NCc3ccncc3)ccc21 [Motesanib] + O=C(c1cc(Cc2n[nH]c(=O)c3ccccc23)ccc1F)N1CCN(C(=O)C2CC2)CC1 [Olaparib] (partner 8 µM)
Experiment: relative viability (nuclei count vs DMSO), 5 days (fraction); higher = more cells survive
Settings: first compound 0.01 µM
How it was run: (§1)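 Five library-drug doses in √10 steps were combined with a fixed anchor-drug dose, or a single drug was given alone, by pin tool to lung cancer cell lines in 1536-well plates the day after seeding. Nuclei were stained and counted after 5 days. Relative viability is the nuclei count in treated wells over that in vehicle wells, taken as the median of duplicate plates.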

Row | Cell Line | relative viability
1 | ABC-1 | 0.895
2 | NCI-H358 | 0.507
3 | NCI-H650 | 0.446
4 | PC-3 [JPC-3] | 1.14

Same assay, conditions: first compound 0.03162 µM

Row | Cell Line | relative viability
5 | ABC-1 | 0.66
6 | NCI-H358 | 0.652
7 | NCI-H650 | 0.382
8 | PC-3 [JPC-3] | 1.18

Same assay, conditions: first compound 0.1 µM

Row | Cell Line | relative viability
9 | ABC-1 | 0.58
10 | NCI-H358 | 0.626
11 | NCI-H650 | 0.42
12 | PC-3 [JPC-3] | 1.2

Same assay, conditions: first compound 0.3162 µM

Row | Cell Line | relative viability
13 | ABC-1 | 1.15
14 | NCI-H358 | 0.658
15 | NCI-H650 | 0.39
16 | PC-3 [JPC-3] | 1.18

Same assay, conditions: first compound 1 µM

Row | Cell Line | relative viability
17 | ABC-1 | 0.869
18 | NCI-H358 | 0.633
19 | NCI-H650 | 0.426
20 | PC-3 [JPC-3] | 1.16

Compound: C[C@@]1(C(=O)Nc2ccc(F)nc2)CCCN1c1nc(Nc2cc(C3CC3)n[nH]2)c2cccn2n1 + Nc1ncn([C@H]2C[C@H](O)[C@@H](CO)O2)c(=O)n1 [Decitabine] (partner 2 µM)
Experiment: as above
Settings: first compound 0.04 µM
How it was run: as §1

Row | Cell Line | relative viability
21 | ABC-1 | 1.01
22 | NCI-H358 | 0.212
23 | NCI-H650 | 0.291
24 | PC-3 [JPC-3] | 0.786

Same assay, conditions: first compound 0.1265 µM

Row | Cell Line | relative viability
25 | ABC-1 | 0.714
26 | NCI-H358 | 0.146
27 | NCI-H650 | 0.311
28 | PC-3 [JPC-3] | 0.608

Same assay, conditions: first compound 0.4 µM

Row | Cell Line | relative viability
29 | ABC-1 | 0.628
30 | NCI-H358 | 0.165
31 | NCI-H650 | 0.305
32 | PC-3 [JPC-3] | 0.804

Same assay, conditions: first compound 1.265 µM

Row | Cell Line | relative viability
33 | ABC-1 | 0.785
34 | NCI-H358 | 0.116
35 | NCI-H650 | 0.29
36 | PC-3 [JPC-3] | 0.766

Compound: C[C@@]1(C(=O)Nc2ccc(F)nc2)CCCN1c1nc(Nc2cc(C3CC3)n[nH]2)c2cccn2n1 + CS(=O)(=O)N1CCN(Cc2cc3nc(-c4cccc5[nH]ncc45)nc(N4CCOCC4)c3s2)CC1 [Pictilisib] (partner 1 µM)
Experiment: as above
Settings: first compound 0.04 µM
How it was run: as §1

Row | Cell Line | relative viability
37 | ABC-1 | 0.598
38 | NCI-H358 | 0.259
39 | NCI-H650 | 0.916
40 | PC-3 [JPC-3] | 0.784

Same assay, conditions: first compound 0.1265 µM

Row | Cell Line | relative viability
41 | ABC-1 | 0.6
42 | NCI-H358 | 0.237
43 | NCI-H650 | 0.651
44 | PC-3 [JPC-3] | 0.595

Same assay, conditions: first compound 0.4 µM

Row | Cell Line | relative viability
45 | ABC-1 | 0.467
46 | NCI-H358 | 0.173
47 | NCI-H650 | 0.689
48 | PC-3 [JPC-3] | 0.708

Same assay, conditions: first compound 1.265 µM

Row | Cell Line | relative viability
49 | ABC-1 | 0.394
50 | NCI-H358 | 0.277
51 | NCI-H650 | 0.722
52 | PC-3 [JPC-3] | 0.644

Compound: C[C@@]1(C(=O)Nc2ccc(F)nc2)CCCN1c1nc(Nc2cc(C3CC3)n[nH]2)c2cccn2n1 + NC(=O)Nc1cc(-c2cccc(F)c2)sc1C(=O)N[C@H]1CCCNC1 [AZD7762] (partner 0.2 µM)
Experiment: as above
Settings: first compound 0.04 µM
How it was run: as §1

Row | Cell Line | relative viability
53 | ABC-1 | 0.833
54 | NCI-H358 | 0.389
55 | NCI-H650 | 1.16
56 | PC-3 [JPC-3] | 0.7

Same assay, conditions: first compound 0.1265 µM

Row | Cell Line | relative viability
57 | ABC-1 | 0.595
58 | NCI-H358 | 0.392
59 | NCI-H650 | 0.609
60 | PC-3 [JPC-3] | 0.689

Same assay, conditions: first compound 0.4 µM

Row | Cell Line | relative viability
61 | ABC-1 | 0.643
62 | NCI-H358 | 0.171
63 | NCI-H650 | 0.729
64 | PC-3 [JPC-3] | 0.551

Same assay, conditions: first compound 1.265 µM

Row | Cell Line | relative viability
65 | ABC-1 | 0.593
66 | NCI-H358 | 0.282
67 | NCI-H650 | 0.828
68 | PC-3 [JPC-3] | 0.415
